Assay results published in paper PMC11528470, “Evidence for the Quercetin Binding Site of Glycogen Phosphorylase as a Target for Liver-Isoform-Selective Inhibitors against Glioblastoma: Investigation of Flavanols Epigallocatechin Gallate and Epigallocatechin” (Journal of Agricultural and Food Chemistry, 2024).
Where two headings read alike, the source gives them in different places.

Tests used:
[1] = target: T1, Rabbit skeletal muscle glycogen phosphorylase b (rmGPb) (Oryctolagus cuniculus, UniProt P00489); assay: X-ray crystal structure ([…] Å) plus enzyme kinetics (noncompetitive Ki); assay type: biochemical
T1 construct: gene PYGM
T1 sequence (P00489 2-843): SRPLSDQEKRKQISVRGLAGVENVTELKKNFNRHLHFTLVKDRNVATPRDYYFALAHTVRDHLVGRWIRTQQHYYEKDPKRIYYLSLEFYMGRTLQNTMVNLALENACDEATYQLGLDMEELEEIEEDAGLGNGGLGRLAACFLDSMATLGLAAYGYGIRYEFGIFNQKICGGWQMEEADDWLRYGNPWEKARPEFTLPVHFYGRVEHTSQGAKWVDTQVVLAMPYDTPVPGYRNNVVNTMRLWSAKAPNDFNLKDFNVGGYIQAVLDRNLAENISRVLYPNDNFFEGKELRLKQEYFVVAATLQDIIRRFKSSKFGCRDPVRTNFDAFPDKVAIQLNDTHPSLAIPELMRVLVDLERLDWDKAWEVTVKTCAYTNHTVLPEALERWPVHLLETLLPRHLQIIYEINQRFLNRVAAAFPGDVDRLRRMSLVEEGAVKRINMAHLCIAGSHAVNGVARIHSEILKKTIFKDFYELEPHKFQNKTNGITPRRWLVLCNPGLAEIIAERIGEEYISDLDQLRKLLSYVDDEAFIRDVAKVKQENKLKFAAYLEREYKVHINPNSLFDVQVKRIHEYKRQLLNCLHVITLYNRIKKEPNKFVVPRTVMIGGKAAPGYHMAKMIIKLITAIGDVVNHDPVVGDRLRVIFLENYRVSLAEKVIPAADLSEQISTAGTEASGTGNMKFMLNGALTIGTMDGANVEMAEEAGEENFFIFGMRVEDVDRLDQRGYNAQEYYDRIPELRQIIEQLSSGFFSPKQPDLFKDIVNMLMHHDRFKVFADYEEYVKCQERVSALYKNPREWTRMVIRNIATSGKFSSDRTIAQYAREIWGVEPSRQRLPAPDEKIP

[2] = target: T2, human liver glycogen phosphorylase a (hlGPa) (Homo sapiens, UniProt P06737); assay: enzyme kinetics on purified hlGPa, Lineweaver–Burk; assay type: biochemical
T2 construct: gene PYGL
T2 sequence (P06737 2-847): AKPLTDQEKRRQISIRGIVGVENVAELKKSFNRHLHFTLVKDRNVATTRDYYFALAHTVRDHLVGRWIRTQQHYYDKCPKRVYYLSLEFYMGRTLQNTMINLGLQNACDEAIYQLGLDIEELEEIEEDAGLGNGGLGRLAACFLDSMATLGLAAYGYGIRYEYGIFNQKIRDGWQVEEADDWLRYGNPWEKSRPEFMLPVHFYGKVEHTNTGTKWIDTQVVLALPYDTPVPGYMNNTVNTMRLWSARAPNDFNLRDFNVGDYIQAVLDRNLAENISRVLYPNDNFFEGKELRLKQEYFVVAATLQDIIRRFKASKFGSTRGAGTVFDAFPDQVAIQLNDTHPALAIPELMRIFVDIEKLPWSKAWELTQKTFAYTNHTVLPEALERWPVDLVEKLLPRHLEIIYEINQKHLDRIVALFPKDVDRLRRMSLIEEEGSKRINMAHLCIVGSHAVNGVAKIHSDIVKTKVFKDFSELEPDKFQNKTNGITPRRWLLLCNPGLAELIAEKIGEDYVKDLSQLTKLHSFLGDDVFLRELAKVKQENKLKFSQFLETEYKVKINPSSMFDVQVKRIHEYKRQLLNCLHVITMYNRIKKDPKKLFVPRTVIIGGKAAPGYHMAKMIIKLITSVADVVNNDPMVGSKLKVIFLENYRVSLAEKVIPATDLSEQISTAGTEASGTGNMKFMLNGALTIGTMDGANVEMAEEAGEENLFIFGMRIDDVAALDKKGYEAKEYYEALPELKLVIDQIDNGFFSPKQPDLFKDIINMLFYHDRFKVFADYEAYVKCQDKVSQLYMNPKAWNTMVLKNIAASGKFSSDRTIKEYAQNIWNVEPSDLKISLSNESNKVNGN

[3] = target: T2, human liver glycogen phosphorylase a (hlGPa); assay: enzyme inhibition assay on purified hlGPa; assay type: biochemical
[4] = target: T1, Rabbit skeletal muscle glycogen phosphorylase b (rmGPb); assay: X-ray crystal structure ([…] Å) plus enzyme kinetics (noncompetitive Ki); assay type: biochemical; remark: listed apart in the source
[5] = target: T1, Rabbit skeletal muscle glycogen phosphorylase b (rmGPb)
[6] = target: T1, Rabbit skeletal muscle glycogen phosphorylase b (rmGPb); assay: X-ray crystal structure of ternary rmGPb-EGCG-glucose complex ([…] Å); multiple inhibition kinetics; assay type: binding

O=C(O[C@@H]1Cc2c(O)cc(O)cc2O[C@@H]1c1cc(O)c(O)c(O)c1)c1cc(O)c(O)c(O)c1 [EGCG]
Ki [1]: 49.8 ± 1.6 µM
Ki [2]: 17.6 ± 0.7 µM

Oc1cc(O)c2c(c1)O[C@H](c1cc(O)c(O)c(O)c1)[C@H](O)C2 [EGC]
IC50 [3]: 194 ± 3.5 µM
Ki [4]: 286 ± 14.1 µM

Cn1c(=O)c2c(ncn2C)n(C)c1=O [caffeine]
X-ray crystal structure of ternary rmGPb-EGCG-caffeine complex (2.5 Å); multiple [5]: EGCG can bind at the QBS simultaneously with glucose at the catalytic site or caffeine at the inhibitor site

OC[C@H]1OC(O)[C@H](O)[C@@H](O)[C@@H]1O (stereo partly drawn) [glucose]
X-ray crystal structure of ternary rmGPb-EGCG-glucose complex (2.0 Å); multiple [6]: EGCG can bind at the QBS simultaneously with glucose at the catalytic site or caffeine at the inhibitor site
